# Source: patent publication US20190125896A1, “ANTI-INFECTIVE COMPOSITIONS COMPRISING PHYTOGLYCOGEN NANOPARTICLES” (MIREXUS BIOTECHNOLOGIES INC., priority 2016, published 2019)
# Tests used:
# Candida utilis ATCC9950 = test: MIC of amphotericin B-phytoglycogen conjugate, modified broth microdilution; type: cell-based; conditions: 35° C.
# Procedure: The activity of the amphotericin B-phytoglycogen conjugate (PHG-AMB) was assayed against a yeast, Candida utilis ATCC9950, using a modified broth microdilution assay (CLSI M27-A2; Example 15). RPMI 1640 medium (Sigma-Aldrich; Canada), containing no sodium bicarbonate, supplemented with 0.165 M MOPS and adjusted to a pH of 7.0, was used for the assay. Stocks of 1600 μg AMB/ml DMSO were stored at −80° C. and diluted prior to use. 500 μg PHG-AMB.ml^−1 RPMI 1640 was prepared fresh on the day of assay. Briefly, doubling dilutions of 16 μg AMB.ml^−1 RPMI 1640 and 500 μg PHG-AMB.ml^−1 RPMI 1640 were prepared by serial two-fold dilution in RPMI 1640. Controls comprised AMB supplemented with phytoglycogen adjusted to mimic the changing concentration of PHG-AMB in the wells. Negative growth control wells contained sterile medium. Positive growth control wells contained medium or medium supplemented with phytoglycogen. […] Assays were performed as in duplicate replicate with a minimum of three independent replicates.
# C. utilis ATCC9950 = test: Sensitization to antibiotics: MIC in medium supplemented with phytoglycogen; type: cell-based; conditions: Candida utilis
# Procedure: (§1) MIC assays as defined in Example 15 were performed in sterile and untreated 96 well microtitre plates according to the broth micro-dilution technique described in either the Clinical and Laboratory Standards Institute document M07-A9: Methods for Dilution Antimicrobial Susceptibility Tests for Bacteria that Grow Aerobically; Approved Standard and document M27-A2 Reference Method for Broth Dilution Antifungal Susceptibility Testing of Yeasts; Approved Standard—Second Edition, with the exception that, where indicated, medium was additionally supplemented with native or cationized phytoglycogen. Assessments done using C. utilis ATCC9950, B. subtilis 168 and E. coli AB264 employed native or cationized phytoglycogen at concentrations ⅛, ¼, ½ their respective MIC values for cationized phytoglycogen. Assessments of the opportunistic pathogen P. aeruginosa PAO1 were made at final in-assay concentrations of 0.5, 1 or 10 mg native or cationized phytoglycogen.ml^−1. Experiments were performed as in-assay duplicates, and were repeated a minimum of three times (n=6).
# (§2) MIC assays were performed in duplicate within each experiment and were repeated a minimum three times to confirm the data (n=6). MIC values with a four-fold or greater change relative to the non-supplemented medium MIC represent a statistically-significant change in MIC value. Only those antibiotic-cationized phytoglycogen combinations which caused a four-fold change relative to the non-supplemented medium MIC were deemed as indicative of resulting in potentiation (MIC value was less), or tolerance (MIC value increased).
# [1] = tested on: P. aeruginosa PAO1 biofilm; test: Biofilm eradication: 20 h biofilms treated with antibiotic and cationized phytoglycogen; type: cell-based, Pseudomonas aeruginosa; conditions: 24 h, medium alone
# Procedure: Biofilm growth and treatments were performed in sterile 96 well polystyrene plates. Sterile solutions of gamma-irradiated cationized phytoglycogen was prepared by reconstitution and dilution as required in sterile Mueller-Hinton broth. P. aeruginosa PAO1 stocks were revived by sub-culturing P. aeruginosa PAO1 (37° C., 150 rpm, 16-18 h) in Mueller-Hinton broth (Oxoid; Fisher Scientific, Canada). The inoculum was prepared immediately prior to use by diluting in sterile Mueller-Hinton broth to a final in-assay cell density of 5×10^5 CFU.ml^−1. 100 μl of this solution was transferred to wells and incubated (37° C., 150 rpm). Sterile broth was the negative growth control. At 20 h, plates were transferred to a biological safety cabinet, well contents were gently aspirated and the wells rinsed with sterile 0.9% (wt/vol) NaCl. […] Positive growth controls contained inoculated medium, non-supplemented or with 1 or 10 mg cationized phytoglycogen.ml^−1. Plates were incubated at 37° C. for a further 24 h, after which biofilms were quantitated as previously described. Experiments were done in quadruplicate replicate and repeated three times (n=12).
# [2] = tested on: P. aeruginosa PAO1 biofilm; test: Biofilm formation at sub-MIC tobramycin; type: cell-based, Pseudomonas aeruginosa; conditions: non-supplemented medium
# Procedure: The potential for cationized phytoglycogen to limit enhanced biofilm formation at sub-MIC concentrations of the aminoglycoside tobramycin was assessed in sterile 96 well polystyrene plates. P. aeruginosa PAO1 stocks were revived by sub-culturing P. aeruginosa PAO1 in Mueller-Hinton broth (Oxoid; Fisher Scientific, Canada) and grown for 20-22 h (37° C., 150 rpm). Sterile solutions of gamma-irradiated cationized phytoglycogen was prepared by reconstitution and dilution as required in sterile Mueller-Hinton broth. […] The inoculum was prepared immediately prior to use by diluting in sterile Mueller-Hinton broth, with a final in-assay cell density of 5×10^5 CFU.ml^−1. Plates were incubated statically at 37° C. At 20 h, biofilms were stained and quantitated according to the previously described protocol (Example 23). Experiments were done in quadruplicate replicate and repeated three times (n=12).
# [3] = tested on: Pseudomonas aeruginosa PAO1; test: MIC broth micro-dilution; type: cell-based; conditions: P. aeruginosa PAO1, Mueller-Hinton broth, read-out: MIC value established empirically
# Procedure: Minimum inhibitory concentration (MIC) assays were done to evaluate antibacterial properties of cationized phytoglycogen. The MIC is defined as “the lowest concentration of an anti-infective agent that prevents visible growth of a micro-organism in an agar or broth dilution susceptibility test”.
# MIC assessments against bacteria were performed following broth micro-dilution in accordance with the Clinical and Laboratory Standards Institute document M07-A9: Methods for Dilution Antimicrobial Susceptibility Tests for Bacteria that Grow Aerobically; Approved Standard. A Gram-positive organism, Bacillus subtilis 168, and two Gram-negative organisms, Escherichia coli AB264 (K-12) and Pseudomonas aeruginosa PAO1 were assessed. Long-term stock cultures of organisms were maintained at −80° C. in glycerol (15% vol/vol). Stocks were revived by sub-culturing onto trypticase soy agar plates, grown for 18 hrs at 37° C. and then stored at 4° C. for up to one week. Overnight cultures were grown by inoculating Mueller-Hinton broth with 3-4 colonies from stock plates and incubating for 20-24 hrs at 37° C. and 150 rpm. […] Plates were incubated at 37° C. for 20 h, at which points wells were scored for growth. […] Cationized phytoglycogen, prepared according to the alternative procedure detailed in Example 3, was also assessed in double-dilution increments from 19 to 10 000 μg.ml^−1. […]
# P. aeruginosa PAO1 = test: Sensitization to antibiotics: MIC in medium supplemented with phytoglycogen; type: cell-based, Pseudomonas aeruginosa; conditions: P. aeruginosa
# Procedure: as §1, §2
compound,measurement,setting,value
C[C@@H]1[C@H](O)[C@@H](C)/C=C/C=C/C=C/C=C/C=C/C=C/C=C/[C@H](O[C@@H]2O[C@H](C)[C@@H](O)[C@H](N)[C@@H]2O)C[C@@H]2O[C@](O)(C[C@@H](O)C[C@@H](O)[C@H](O)CC[C@@H](O)C[C@@H](O)CC(=O)O[C@H]1C)C[C@H](O)[C@H]2C(=O)O [amphotericin B],MIC,"Candida utilis ATCC9950; RPMI 1640, 48 h",0.5 μg AMB.ml^−1
same,MIC,"Candida utilis ATCC9950; RPMI 1640 supplemented with phytoglycogen, 48 h",0.5 μg AMB.ml^−1
same,"fold-change reduction in MIC, CP0.125",C. utilis ATCC9950; cationized phytoglycogen at 0.125 of its MIC,1-2 fold
same,"fold-change reduction in MIC, CP0.25",C. utilis ATCC9950; cationized phytoglycogen at 0.25 of its MIC,1 fold
same,"fold-change reduction in MIC, CP0.5",C. utilis ATCC9950; cationized phytoglycogen at half-strength of its MIC,↓4 fold
O=C(O)c1cn(C2CC2)c2cc(N3CCNCC3)c(F)cc2c1=O [ciprofloxacin],change in biofilm of 20 h biofilms,[1]; at the MIC,no change in biofilm
same,reduction of biofilm,[1]; four-fold the MIC,73%
same,reduction of biofilm,[1]; two-fold the MIC,64%
NC[C@H]1O[C@H](O[C@H]2[C@H](O)[C@@H](O[C@H]3O[C@H](CO)[C@@H](O)[C@H](N)[C@H]3O)[C@H](N)C[C@@H]2N)[C@H](N)C[C@@H]1O [tobramycin],factor of biofilm accumulation relative to the medium only control,[2]; tobramycin at % -MIC,1.5
same,factor of biofilm accumulation relative to the medium only control,[2]; tobramycin at ¼-MIC,1.33
same,factor of biofilm accumulation relative to the medium only control,[2]; tobramycin at ½-MIC,> 2.00
same,change in biofilm of 20 h biofilms,[1]; 0.125 to 2 times the MIC,net increase in biofilm proliferation
same,reduction of biofilm relative to the initial biofilm,[1]; four-fold the MIC,40%
same,MIC,[3],0.4 µg/mL
same,↓ Fold-change in MIC (cationized phytoglycogen) MIC.5 mg/ml,P. aeruginosa PAO1; 0.5 mg cationized phytoglycogen · ml^−1 Mueller-Hinton Broth,2 fold
same,↓ Fold-change in MIC (cationized phytoglycogen) MIC1 mg/ml,P. aeruginosa PAO1; 1 mg cationized phytoglycogen · ml^−1 Mueller-Hinton Broth,2 fold
same,↓ Fold-change in MIC (cationized phytoglycogen) MIC10 mg/ml,P. aeruginosa PAO1; 10 mg cationized phytoglycogen · ml^−1 Mueller-Hinton Broth,1 fold
same,MIC,"P. aeruginosa PAO1; Pseudomonas aeruginosa, PAO1, non-supplemented Mueller-Hinton Broth, read-out: MIC",0.25 µg/mL
